From patent US9440941B2, “Substituted chroman-6-yloxy-cycloalkanes and their use as pharmaceuticals” (SANOFI, priority 2013, dated 2016)

Test system: Sprague-Dawley rats
Test: In vivo method for determining the effect on heart contractility (left ventricular dp/dtmax)
Parameters: species or system rat
Details: anesthetized male Sprague-Dawley rats, intravenous, vs solvent control
Method: B) In Vivo Method for Determining the Effect on Heart Contractility
Adult male Sprague-Dawley rats (Harlan Winkelmann, Borchen, Germany) weighing 340 to 370 g were anesthetized with pentobarbital (100 mg/kg i.p.) and ventilated with a mixture of oxygen (40%) and room air (60%) at a tidal volume of 1 ml/100 g at 60 breaths/min. Body temperature was maintained at 36.5±0.3° C. with a heating lamp and was monitored with a rectal thermo sensor. Systemic blood pressure was measured in the left carotid artery using a pressure transducer (Combitrans; B. Braun Melsungen AG, Melsungen, Germany) connected to a DC-bridge-amplifier (PLUGSYS/ADC Type 663; Harvard Apparatus GmbH, March-Hugstetten, Germany). The electrocardiogram was measured as lead II via subcutaneously placed electrodes connected to a Heart-Rate-Module (PLUGSYS/HRM Type 669; Harvard Apparatus GmbH, March-Hugstetten, Germany). A micro-tip catheter (2 French, SPR-320; Millar Instruments, Houston, Tex., USA) was placed via the right carotid artery into the left ventricle, and the left ventricular pressure (LVP) and the enddiastolic pressure (EDP) were continuously measured. Registration of the hemodynamic data was performed via an analog digital converter by a personal computer using Notocord software (HEM version 3.5). Left ventricular contractility (dp/dtmax) and relaxation (dp/dtmin) were calculated from the LVP signal. For intravenous administration of the test compounds, the left jugular vein was prepared and a PP-50 catheter was inserted. Test compounds were administered either by intravenous bolus injection or by intravenous infusion by means of an infusion pump (Unita; B. Braun Melsungen AG, Melsungen, Germany). Test compounds were dissolved in a mixture of Glycofurol (75%) and Cremophor (25%), and the solution was further diluted with distilled water (1:4). In a typical experiment, several dosages of the test compound were administered subsequently at increasing doses. Statistical significance of the data obtained with drug vs control experiments, in which solvent was administered, was evaluated with the 2-sided ANOVA test (program Everstat). Increases in left ventricular contractility (percent increase) by example compounds are given in Table 3 in comparison to control experiments in which solvent was administered.

Structure (SMILES)	Contractility increase (left ventricular contractility) (0.1 mg/kg)	Contractility increase (left ventricular contractility) (0.3 mg/kg)	Contractility increase (left ventricular contractility) (1.0 mg/kg)
Cc1ccccc1C1CCc2cc(OC3CCC(C(=O)NCc4ccno4)CC3)ccc2O1 (stereo not drawn) [Example 158, N-(Isoxazol-5-ylmethyl)-4-(2-o-tolyl-chroman-6-yloxy)-cyclohexanecarboxamide]	106%	139%	146%
Cc1ccccc1[C@@H]1CCc2cc(O[C@H]3CC[C@H](C(=O)NCCO)CC3)ccc2O1 [Example 268, trans-4-((S)-2-o-tolyl-chroman-6-yloxy)-cyclohexanecarboxylic acid (2-hydroxy-ethyl)-amide]	108%	154%	179%
Cc1ccccc1[C@@H]1CCc2cc(O[C@H]3CC[C@H](C(=O)NCCOP(=O)([O-])[O-])CC3)ccc2O1.[Na+].[Na+] [Example 303, Phosphoric acid mono-(2-{[trans-4-((S)-2-o-tolyl-chroman-6-yloxy)-cyclohexanecarbonyl]-amino}-ethyl) ester disodium salt]	69%	114%	172%
Cc1ccccc1C1CCc2cc(OC3CCC(NCc4c(C)nn(C)c4C)CC3)ccc2O1 (stereo not drawn) [Example 177, 4-(2-o-Tolyl-chroman-6-yloxy)-N-(1,3,5-trimethylpyrazol-4-ylmethyl)-cyclohexylamine]	29%	81%	134%
O=C(N[C@H]1CC[C@H](Oc2ccc3c(c2)CCC(c2ccccc2)O3)CC1)[C@@H]1CCCN1 (stereo partly drawn) [Example 180, (S)—N-[trans-4-(2-Phenyl-chroman-6-yloxy)-cyclohexyl]-pyrrolidine-2-carboxamide]	26%	66%	99%
Cc1ccccc1C1CCc2cc(O[C@H]3CC[C@H](N)CC3)ccc2O1.Cl (stereo partly drawn) [Example 156, trans-4-(2-o-Tolyl-chroman-6-yloxy)-cyclohexylamine]	44%	110%	171%
NCC(=O)N[C@H]1CC[C@H](Oc2ccc3c(c2)CC[C@@H](c2ccccc2)O3)CC1 [Example 159, 2-Amino-N-[trans-4-((S)-2-phenyl-chroman-6-yloxy)-cyclohexyl]-acetamide]	46%	104%	140%
